Experimental data published in patent publication US9566312B2, “Cyclic peptides and use as medicines” (priority 2012, dated 2017).
Like-named read-outs stand apart in the source and are kept apart here. Starred links: 1 amine or outer side, 2 acyl side, 3 side chain; linkers in the order of their positions; H or OH if unused. Non-standard residues stand in square brackets, D forms with d. Residues, ends and D or L forms follow the SMILES beside them. X69 = C[C@H](CCCN1CCC(C(N)=O)CC1)[C@@H](C(=O)[*:2])N(C)[*:1]; X1 = COC[C@@H]1CN(C[C@H](C)[C@@H](C(=O)[*:2])N(C)[*:1])CCO1; X60 = C[C@H](CCCN1CC2CCC(C1)N2C)[C@@H](C(=O)[*:2])N(C)[*:1]; X39 = C[C@H](CN1CCC(C#N)CC1)[C@@H](C(=O)[*:2])N(C)[*:1]; X47 = C[C@H](CN1CCC(F)(F)C1)[C@@H](C(=O)[*:2])N(C)[*:1]; MeBmt = C/C=C/C[C@@H](C)[C@@H](O)[C@H](NC)C(=O)O; NMeVal(4-OMe,3S) = CN[C@H](C(=O)O)[C@H](C)COC; NMeL = CN[C@@H](CC(C)C)C(=O)O; NMeV = CN[C@H](C(=O)O)C(C)C; dNMeS = CN[C@H](CO)C(=O)O; dNMeA = CN[C@H](C)C(=O)O; Abu = CC[C@H](N)C(=O)O

Tests used:
cyclophilin A (CypA) = cyclophilin A (CypA) (Homo sapiens (Human), UniProt P62937); experiment: Inhibitor binding to cyclophilin proteins by SPR, CypA; design: unit not given here; details: 1:1 binding model
Chain of cyclophilin A (CypA) (P62937 whole entry): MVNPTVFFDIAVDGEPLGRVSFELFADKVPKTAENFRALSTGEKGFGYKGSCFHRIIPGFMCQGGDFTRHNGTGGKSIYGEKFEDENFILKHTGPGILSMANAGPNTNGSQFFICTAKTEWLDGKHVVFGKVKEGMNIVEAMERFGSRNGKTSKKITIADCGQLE

cyclophilin B (CypB) = cyclophilin B (CypB) (Homo sapiens (Human), UniProt P23284); experiment: Inhibitor binding to cyclophilin proteins by SPR, CypB; design: unit not given here; details: 1:1 binding model
Chain of cyclophilin B (CypB) (P23284 34-216): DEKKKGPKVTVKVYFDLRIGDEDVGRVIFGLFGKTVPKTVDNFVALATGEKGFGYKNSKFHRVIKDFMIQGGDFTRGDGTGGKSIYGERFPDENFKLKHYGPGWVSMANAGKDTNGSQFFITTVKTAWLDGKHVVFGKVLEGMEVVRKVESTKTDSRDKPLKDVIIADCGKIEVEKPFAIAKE
Method: (§1) Method 1: Measuring Inhibitor Binding to Cyclophilin Proteins
(§2) Binding of inhibitors to expressed cyclophilins was determined using surface plasmon resonance (SPR) experiments. Briefly, avi-tagged cyclophilin proteins with mono-biotinylation were immobilized onto a Biotin CAPture chip (GE Healthcare, cat. #28920234). SPR experiments were carried out on an upgraded Biacore T200 system using a running buffer containing the inhibitor, 10 mM HEPES, pH 7.4, 150 mM NaCl, 0.05% P20, and 3% DMSO. Single-cycle kinetics measurements were used to study the interactions between cyclophilin inhibitors and different cyclophlins. Accordingly, compound at various concentrations was injected to the flow cells with a contact time of 1 min each at a flow rate of 50 μL/min. The final dissociation phase lasts for 10 min following the sample injection. Data was analyzed using Biacore T200 Evaluation Software Version 1.0 and a 1:1 binding model was applied to fit the data to obtain kon, koff, and KD.

CypF = CypF (Homo sapiens (Human), UniProt P30405); experiment: Inhibitor binding to cyclophilin proteins by SPR, CypF; details: 1:1 binding model
Chain of CypF (P30405 30-207): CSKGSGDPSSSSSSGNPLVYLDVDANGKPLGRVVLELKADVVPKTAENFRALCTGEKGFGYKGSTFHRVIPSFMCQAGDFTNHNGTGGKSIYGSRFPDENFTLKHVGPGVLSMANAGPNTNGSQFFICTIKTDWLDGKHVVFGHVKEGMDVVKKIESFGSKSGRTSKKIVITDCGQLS
Method: as §1, §2

[1] = test system: genotype 1b subgenomic HCV replicon in Huh7.5 cells; type: cell-based, hepatitis C virus; details: read-out: RPLN-1b IC50
Method: Method 2: Measuring Inhibitory Effects in a HCV Replicon System
Susceptibility to compounds was analyzed in Huh7.5 cells containing genotype 1a or 1b subgenomic HCV replicons co-expressing a luciferase reporter gene. The original replicons, pFK389lucubineo_3_3′_ET and pH/SG-Neo(L+I), were licensed from ReBlicon GmbH (Germany) and Apath LLC (Saint Louis, Mo.), respectively. The firefly reporter gen was replaced by renilla luciferase reporter gene using standard molecular biology techniques as follows.
Generation of genotype 1b subgenomic replicon: The renilla […]-neomycin phosphotransferase cassette was amplified from pF9 cytomegalovirus (CMV) hRluc-Neo Flexi(R) (Promega) by PCR using Accuprime super mix II (Invitrogen) and a primer set of Ascl hRlucNeo Fwd and NotI hRluc Rev. These two primers have the following sequences and introduce restriction sites for subsequent cloning: Ascl hRlucNeo Fwd, 5 […] 3(Ascl site underlined) (SEQ. ID No. 1), and NotI hRluc Rev, 5[…] 3(NotI site underlined) (SEQ ID No. 2). The amplification product was subcloned into pCR2.1-TOPO (Invitrogen). The resulting plasmid was digested with Ascl and NotI, and the excised fragment (hRluc-Neo) was ligated with the Roche Quick Ligation Kit (Roche) into pFK1389lucubineo_3_3′_ET digested with the same enzymes.
The assay medium for both, luciferase reporter HCV replicon and cytotoxicity assays contains phenol red-free DMEM and lacks G418. […] Luciferase activity of compound treated cells is measured relative to DMSO treated cells after 72 h incubation using Renilla-Glo™ Luciferase Assay (Promega). Cytotoxicity (CC50) is analyzed using Cell Titer-Glo™ (Promega).

[2] = test system: peripheral blood mononuclear cells (PBMC); experiment: Anti-proliferative or immunosuppressive activity, BrdU incorporation in PHA-stimulated PBMC; type: cell-based; details: PHA 3 μg/ml, 60 hour compound treatment; read-out: EMV PBMC IC50
Method: Method 3: Measuring Anti-Proliferative or Immunosuppressive Activity
The potential anti-proliferative activity of compounds on T-cells was analyzed based on the amount of bromodesoxy uridine (BrdU) incorporated into DNA of fresh peripheral blood mononuclear cells (PBMC) using the BrdU ELISA kit (Roche). The assay is performed in 96-well plate format with 30,000 PBMCs seeded per well in X-VIVO 15 medium (Lonza). T-cell proliferation was stimulated by addition of 3 μg/ml phytohemagglutinin (PHA) in PBMCs obtained from two donors.

[3] = genotype 1b replicon, 72 h incubation

Structure (SMILES)	CypA Kd (cyclophilin A (CypA))	CypB Kd (cyclophilin B (CypB))	CypF Kd (CypF)	IC50 [1, 3]	IC50 [2]	IC50 [1]
C/C=C/C[C@@H](C)[C@@H](O)[C@H]1C(=O)N[C@@H](CC)C(=O)N(C)[C@H](C)C(=O)N(C)[C@@H]([C@H](C)COCCN2CCN3C(=O)OC[C@@H]3C2)C(=O)N[C@@H](C(C)C)C(=O)N(C)[C@@H](CC(C)C)C(=O)N[C@@H](C)C(=O)N[C@H](C)C(=O)N(C)[C@@H](CC(C)C)C(=O)N(C)[C@@H](CC(C)C)C(=O)N(C)[C@@H](C(C)C)C(=O)N1C [Compound 2.8.11, 3-[D-Ala]-4-[(2S,3S)-3-methyl-2-(methylamino)-4-(2-((S)-3-oxotetrahydro-1H-oxazolo[3,4-a]pyrazin-7(3H)-yl)ethoxy)butanoyl]-cyclosporin]	1.3	0.6	0.5 nM	58 nM	12400 nM	
C/C=C/C[C@@H](C)[C@@H](O)[C@H]1C(=O)N[C@@H](CC)C(=O)N(C)[C@H](C)C(=O)N(C)[C@@H]([C@H](C)COCCN2CC(OC)C2)C(=O)N[C@@H](C(C)C)C(=O)N(C)[C@@H](CC(C)C)C(=O)N[C@@H](C)C(=O)N[C@H](C)C(=O)N(C)[C@@H](CC(C)C)C(=O)N(C)[C@@H](CC(C)C)C(=O)N(C)[C@@H](C(C)C)C(=O)N1C [Compound 2.8.9, 3-[D-Ala]-4-[(2S,3S)-4-(2-(3-methoxyazetidin-1-yl)ethoxy)-3-methyl-2-(methylamino)butanoyl]-cyclosporin]	0.6	0.4	0.3 nM	240 nM	9100 nM	
C/C=C/C[C@@H](C)[C@@H](O)[C@H]1C(=O)N[C@@H](CC)C(=O)N(C)[C@H](C)C(=O)N(C)[C@@H]([C@H](C)CN2CCC(F)(F)C2)C(=O)N[C@@H](C(C)C)C(=O)N(C)[C@@H](CC(C)C)C(=O)N[C@@H](C)C(=O)N[C@H](C)C(=O)N(C)[C@@H](CC(C)C)C(=O)N(C)[C@@H](CC(C)C)C(=O)N(C)[C@@H](C(C)C)C(=O)N1C [Compound 2.5.18, 3-[D-Ala]-4-[(2S,3R)-4-(3,3-difluoropyrrolidin-1-yl)-3-methyl-2-(methylamino)butanoyl]-cyclosporin] (cyclo(A[dA][NMeL][NMeL][NMeV][MeBmt][Abu][dNMeA][X47]V[NMeL]))	3.9	1.8	2 nM	9 nM	12100 nM	
C/C=C/C[C@@H](C)[C@@H](O)[C@H]1C(=O)N[C@@H](CC)C(=O)N(C)[C@H](C)C(=O)N(C)[C@@H]([C@H](C)CN2CCC(C#N)CC2)C(=O)N[C@@H](C(C)C)C(=O)N(C)[C@@H](CC(C)C)C(=O)N[C@@H](C)C(=O)N[C@H](C)C(=O)N(C)[C@@H](CC(C)C)C(=O)N(C)[C@@H](CC(C)C)C(=O)N(C)[C@@H](C(C)C)C(=O)N1C [Compound 2.5.26, 3-[D-Ala]-4-[(2S,3R)-4-(4-cyanopiperidin-1-yl)-3-methyl-2-(methylamino)butanoyl]-cyclosporin] (cyclo(A[dA][NMeL][NMeL][NMeV][MeBmt][Abu][dNMeA][X39]V[NMeL]))	1.3	0.8	0.8 nM	29 nM	11600 nM	
C/C=C/C[C@@H](C)[C@@H](O)[C@H]1C(=O)N[C@@H](CC)C(=O)N(C)[C@H](CO)C(=O)N(C)[C@@H]([C@H](C)COC)C(=O)N[C@@H](C(C)C)C(=O)N(C)[C@@H](CC(C)C)C(=O)N[C@@H](C)C(=O)N[C@H](C)C(=O)N(C)[C@@H](CC(C)C)C(=O)N(C)[C@@H](CC(C)C)C(=O)N(C)[C@@H](C(C)C)C(=O)N1C [Compound 3.2.3, 3-[D-ser]-4-[(2S,3S)-4-methoxy-3-methyl-2-(methylamino)butanoyl]-cyclosporin] (cyclo(A[dA][NMeL][NMeL][NMeV][MeBmt][Abu][dNMeS][NMeVal(4-OMe,3S)]V[NMeL]))	15	7	7 nM		8900 nM	330 nM
C/C=C/C[C@@H](C)[C@@H](O)[C@H]1C(=O)N[C@@H](CC)C(=O)N(C)[C@H](C)C(=O)N(C)[C@@H]([C@H](C)CCCN2CC3CCC(C2)N3C)C(=O)N[C@@H](C(C)C)C(=O)N(C)[C@@H](CC(C)C)C(=O)N[C@@H](C)C(=O)N[C@H](C)C(=O)N(C)[C@@H](CC(C)C)C(=O)N(C)[C@@H](CC(C)C)C(=O)N(C)[C@@H](C(C)C)C(=O)N1C [Compound 2.19.3] (cyclo(A[dA][NMeL][NMeL][NMeV][MeBmt][Abu][dNMeA][X60]V[NMeL]))	0.8	0.4	0.3 nM	290 nM	2000 nM	
C/C=C/C[C@@H](C)[C@@H](O)[C@H]1C(=O)N[C@@H](CC)C(=O)N(C)[C@H](C)C(=O)N(C)[C@@H]([C@H](C)CCCN2CCC(C(N)=O)CC2)C(=O)N[C@@H](C(C)C)C(=O)N(C)[C@@H](CC(C)C)C(=O)N[C@@H](C)C(=O)N[C@H](C)C(=O)N(C)[C@@H](CC(C)C)C(=O)N(C)[C@@H](CC(C)C)C(=O)N(C)[C@@H](C(C)C)C(=O)N1C [Compound 2.19.2, 3-[D-Ala]-4-[(2S,3R)-6-(4-carbamoylpiperidin-1-yl)-3-methyl-2-(methylamino)hexanoyl]-cyclosporin] (cyclo(A[dA][NMeL][NMeL][NMeV][MeBmt][Abu][dNMeA][X69]V[NMeL]))	0.9	0.6	0.5 nM	2700 nM	32300 nM	
C/C=C/C[C@@H](C)[C@@H](O)[C@H]1C(=O)N[C@@H](CC)C(=O)N(C)[C@H](C)C(=O)N(C)[C@@H]([C@@H](C)CN2CCO[C@H](COC)C2)C(=O)N[C@@H](C(C)C)C(=O)N(C)[C@@H](CC(C)C)C(=O)N[C@@H](C)C(=O)N[C@H](C)C(=O)N(C)[C@@H](CC(C)C)C(=O)N(C)[C@@H](CC(C)C)C(=O)N(C)[C@@H](C(C)C)C(=O)N1C [Compound 2.17.11, 3-[D-Ala]-4-[(2S,3S)-4-((S)-2-(methoxymethyl)morpholino)-3-methyl-2-(methylamino)butanoyl]-cyclosporin] (cyclo(A[dA][NMeL][NMeL][NMeV][MeBmt][Abu][dNMeA][X1]V[NMeL]))	1.1	0.7	0.6 nM	22 nM	36400 nM	
CCCC[C@@H](C)[C@@H](O)[C@H]1C(=O)N[C@@H](CC)C(=O)N(C)[C@H](C)C(=O)N(C)[C@@H]([C@H](C)COCCN2CCOCC2)C(=O)N[C@@H](C(C)C)C(=O)N(C)[C@@H](CC(C)C)C(=O)N[C@@H](C)C(=O)N[C@H](C)C(=O)N(C)[C@@H](CC(C)C)C(=O)N(C)[C@@H](CC(C)C)C(=O)N(C)[C@@H](C(C)C)C(=O)N1C [Compound 2.8.10, 1-dihydro-3-[D-Ala]-4-[(2S,3S)-3-methyl-2-(methylamino)-4-(2-morpholinoethoxy)butanoyl]-cyclosporin]	2.1	1.2	1.1 nM	110 nM	14500 nM	
C/C=C/C[C@@H](C)[C@@H](O)[C@H]1C(=O)N[C@@H](CC)C(=O)N(C)[C@H](C)C(=O)N(C)[C@@H]([C@H](C)COC(=O)N(C)C2CCN(C)CC2)C(=O)N[C@@H](C(C)C)C(=O)N(C)[C@@H](CC(C)C)C(=O)N[C@@H](C)C(=O)N[C@H](C)C(=O)N(C)[C@@H](CC(C)C)C(=O)N(C)[C@@H](CC(C)C)C(=O)N(C)[C@@H](C(C)C)C(=O)N1C [Compound 2.5.32, 3-[D-Ala]-4-[(2S,3S)-3-methyl-4-((methyl(1-methylpiperidin-4-yl)carbamoyl)oxy)-2-(methylamino)butanoyl]-cyclosporin]	0.7	0.5	0.4 nM	150 nM	9500 nM	
